We go through 17 compounds from ChEMBL document CHEMBL4715854, “Discovery of Roblitinib (FGF401) as a Reversible-Covalent Inhibitor of the Kinase Activity of Fibroblast Growth Factor Receptor 4” (J Med Chem, 2020).

Some results are limits rather than exact numbers.

The nature of series [1]: Permeability of the compound in human Caco-2 cells assessed as compound recovery at 10 uM measured after 2 hrs by LC/MS/MS analysis. The format is ADME, cell-based. As to conditions: read-out: Drug recovery.
Series [2] in a line: Drug metabolism in human liver microsome assessed as reduction of aldehyde group at 10 mM measured after 15 mins in presence of NADPH by LC-MS analysis. Type of series: ADME. As to conditions: microsomes, 10000 µM.
Series [3] in a line: Drug metabolism in rat liver microsome assessed as reduction of aldehyde group at 10 mM measured after 15 mins in presence of NADPH by LC-MS analysis. Type of series: ADME. The note with it: microsomes, 10000 µM.

As for `COCCOc1cc(NC(=O)N2CCCc3cc(C(F)(F)F)c(C=O)nc32)ncc1C#N`, the recovery at 2 h, 10 µM in series [1] was less than 10%. Further, the Drug metabolism entry in series [2] and in series [3] was “Metabolite_Detected” each time.

In the case of `N#Cc1cnc(NC(=O)N2CCCc3cc(CO)c(C=O)nc32)cc1O[C@H]1CCOC1`, the recovery at 2 h, 10 µM in series [1] was less than 10%. Moreover, the Drug metabolism result in series [2] and in series [3] was “Metabolite_Detected” throughout.

In the case of `C=CC(=O)Nc1ccccc1C(=O)Nc1cc(CCc2cc(OC)cc(OC)c2)[nH]n1`, in series [1], the recovery at 2 h, 10 µM was less than 10%. For the same compound, the Drug metabolism result in series [2] and in series [3] was “Metabolite_Detected” in each case.

With `N#Cc1ccc(NC(=O)N2CCCCc3ccc(C=O)nc32)nc1`, the recovery at 2 h, 10 µM in series [1] is less than 10%. The Drug metabolism result in series [2] and in series [3] was “Metabolite_Detected” in each case.

On to `CC(C)Oc1cc(NC(=O)N2CCCc3ccc(C=O)nc32)ncc1C#N`, for which the recovery at 2 h, 10 µM in series [1] was less than 10%. In addition, the Drug metabolism entry in series [2] and in series [3] was “Metabolite_Detected” each time.

Turning to `CN(C)Cc1cc2c(nc1C=O)N(C(=O)Nc1ccc(C#N)cn1)CCC2`, the recovery at 2 h, 10 µM in series [1] is less than 10%. For the same compound, the Drug metabolism result in series [2] and in series [3] was “Metabolite_Detected” throughout.

As for `N#Cc1ccc(NC(=O)N2CCCc3cc(CC(=O)O)c(C=O)nc32)nc1`, in series [1], the recovery at 2 h, 10 µM was less than 10%. Also, the Drug metabolism result in series [2] and in series [3] was “Metabolite_Detected” in each case.

Take `N#Cc1ccc(NC(=O)N2CCCc3cc(C4CC4)c(C=O)nc32)nc1`: the recovery at 2 h, 10 µM in series [1] is less than 10%. For the same compound, the Drug metabolism result in series [2] and in series [3] was “Metabolite_Detected” throughout.

For the compound `COCCNc1cc(NC(=O)N2CCCc3cc(C4CCOCC4)c(C=O)nc32)ncc1C#N`, in series [1], the recovery at 2 h, 10 µM was less than 10%. The Drug metabolism result in series [2] and in series [3] was “Metabolite_Detected” in each case.

In the case of `N#Cc1cnc(NC(=O)N2CCCc3ccc(C=O)nc32)cn1`, the recovery at 2 h, 10 µM in series [1] was less than 10%. Also, the Drug metabolism entry in series [2] and in series [3] was “Metabolite_Detected” in each case.

Take `COCCNc1cc(NC(=O)N2CCCc3cc(-c4ccnn4C)c(C=O)nc32)ncc1C#N`: the recovery at 2 h, 10 µM in series [1] was less than 10%. In addition, the Drug metabolism result in series [2] and in series [3] was “Metabolite_Detected” in each case.

As for `N#Cc1ccc(NC(=O)N2CCCc3cc(N)c(C=O)nc32)nc1`, in series [1], the recovery at 2 h, 10 µM was less than 10%. Besides, the Drug metabolism entry in series [2] and in series [3] was “Metabolite_Detected” throughout.

Turning to `COCCNc1cc(NC(=O)N(C)c2cccc(C=O)n2)ncc1C#N`, the recovery at 2 h, 10 µM in series [1] was less than 10%. The Drug metabolism entry in series [2] and in series [3] was “Metabolite_Detected” each time.

As to `CC1(O)CCN(c2cc(NC(=O)N3CCCc4ccc(C=O)nc43)ncc2C#N)CC1`, the recovery at 2 h, 10 µM in series [1] is less than 10%. Also, the Drug metabolism entry in series [2] and in series [3] was “Metabolite_Detected” each time.

As for `CC(C)COc1cc(N2CCC(N(C)C)CC2)ccc1Nc1ncc(C#N)c(N[C@H]2[C@@H](C(N)=O)[C@@H]3C=C[C@H]2C3)n1`, in series [1], the recovery at 2 h, 10 µM is less than 10%. Besides, the Drug metabolism entry in series [2] and in series [3] was “Metabolite_Detected” each time.

In the case of `CCN1CCN(c2ccc(Nc3cc(N(C)C(=O)Nc4c(Cl)c(OC)cc(OC)c4Cl)ncn3)cc2)CC1` [INFIGRATINIB], the recovery at 2 h, 10 µM in series [1] was less than 10%. In addition, the Drug metabolism entry in series [2] and in series [3] was “Metabolite_Detected” each time.

In the case of `Cc1cc2c(nc1C=O)N(C(=O)Nc1ccc(C#N)cn1)CCC2`, the recovery at 2 h, 10 µM in series [1] was less than 10%. Further, the Drug metabolism entry in series [2] and in series [3] was “Metabolite_Detected” in each case.
